For one series, the target named is T1, hERG (Homo sapiens, UniProt Q12809).
T1 construct: expressed in transfected cells
Nature of the series: hERG inhibition screen (patch clamp, peak hERG tail current). It counts as cell-based. The following applies: for inhibition at 10 µM: human. As to the method:
Cells were cultured in DMEM/F-12 medium supplemented with 10% fetal bovine serum and 400 μg/mL Geneticin. Cells were grown in 75 cm tissue culture flasks maintained at 37° C. with 5% CO2 and passaged every 3 days using 0.05/0.02% Trypsin/EDTA (confluency of <80%). For the purpose of electrophysiology, cells were seeded in 25 cm2 tissue culture flasks. Three day old cells were harvested using Trypsin/EDTA (0.025/0.01%) as detaching agent and resuspended in external recording solution.
Preweighed quantity of test item was dissolved in tissue culture grade DMSO to prepare a primary stock solution. The strength of the primary stock was 1000× of the intended highest test concentration. Subsequently, working stock solutions of appropriate strengths was prepared by dilution of primary stock with DMSO. The stock solutions were aliquoted into eppendorff tubes and stored at −20° C. freezer (<0° C.) until use. On the day of experiment, aliquots were thawed and used for preparing the assay solution (test solution).
Test solutions were prepared fresh by adding 4 μL of stock solution in to 3996 μL external recording solution such that the final DMSO concentration in the assay solution was 0.1% v/v. Upon addition, solution was inspected carefully against light by naked eye for any indications of precipitation.
Electrophysiological Procedures: • Electrophysiology Setup: Instrument: Port-A-Patch • Patch clamp type: Semiautomatic • Manufacturer: Nanion technologies, GmBH Germany • Electrophysiology chips: Glasscoated NPC-1 chips • Recording Condition: Room temperature • Compound Addition Protocol: Manual addition—20 μL of solution was added on one side of the chip, followed by withdrawal of 20 μL from the other side. This way of addition and withdrawal was repeated at least 4-5 times to ensure actual test concentration is reached. • Test Concentration Exposure Period: Cells were exposed to each test concentration for 3 min or till a steady state block was reached • Voltage Protocol: −40 mV subtraction pulse for 0.5 sec; +40 mV activation pre-pulse for 2 sec; −40 mV test pulse for 2 sec and −80 mV holding potential repeated at every 10 sec • Assay end point: Peak hERG tail current recorded when the voltage was reduced from +40 mV to −40 mV.
The steady state current after the application of 0.1% DMSO was considered as baseline (control current). Steady state current obtained at the end of each test concentration addition was used to calculate the % hERG current inhibited at each concentration. Any rundown due to vehicle addition was corrected to calculate % hERG current inhibition. Each cell acted as its own control. Average current of last 3-5 sweeps of acceptable quality was considered for calculation of % inhibition. Sweeps with artifacts and noise were omitted while calculation.
(hERG is a cardiac potassium channel; its block is linked to QT prolongation.)

Series [1] in a line: Pharmacokinetic screening in male Wistar rats. The following applies: in vivo, rat; for C0: read-out: IV PK C0; for clearance: read-out: IV PK Cl; for Vd: read-out: IV PK Vss; for bioavailability: 3.0 mpk po vs 1.0 mpk iv, read-out: Oral PK % F; for Cmax: read-out: Oral PK Cmax; for Tmax: read-out: Oral PK T max. On the procedure:
(§1) In this example, the PK profile of several PPARδ agonists disclosed herein in male CD-1 mice or Wistar rats was determined by the methods disclosed in Boxenbaum H. (1980) Interspecies variation in liver weight, hepatic blood flow and antipyrine intrinsic clearance in extrapolation of Benzodiazepines and phenytoin. J. Pharmacokinet Biopharm 8: 165-176. Similar methods can be used to analyze other compounds provided herein.
(§2) All compounds were separately administered to CD-1 mice at 1 mg/kg iv or 3 mg/kg po. The compounds were separately administered to male Wistar rats 1 mg/kg iv or 3 mg/kg po. The species M refers to mouse and R reports to rat in the following table. NA means not available.

Series [2] is described as follows: Pharmacokinetic screening in male CD-1 mice. The format is in vivo. The following applies: mouse; for C0: read-out: IV PK C0; for Vd: read-out: IV PK Vss; for bioavailability: read-out: Oral PK % F; for Cmax: read-out: Oral PK Cmax; for Tmax: read-out: Oral PK T max. On the procedure: as §1, §2
The mark [3] stands for this setting: 1 mg/kg, 1.0 mpk iv, read-out: IV PK AUC (0-inf).
Where [4] appears, read: 3 mg/kg, 3.0 mpk po, read-out: Oral PK AUC (0-inf).
Where [5] appears, read: male, CD-1, in vivo, 1 mg/kg, 1.0 mpk iv, read-out: IV PK AUC (0-inf).
Setting [6] is: male, CD-1, in vivo, 1 mg/kg, 1.0 mpk iv.
Where [7] appears, read: male, CD-1, in vivo, 3 mg/kg, 3.0 mpk po vs 1.0 mpk iv.
Setting [8] is: male, CD-1, in vivo, 3 mg/kg, 3.0 mpk po, read-out: Oral PK AUC (0-inf).
Setting [9] is: male, CD-1, in vivo, 3 mg/kg, 3.0 mpk po.
[10] abbreviates: male, CD-1, in vivo, 3 mg/kg, 3.0 mpk po, read-out: Oral PK T½ (converted).
Setting [11] is: male, CD-1, in vivo, 1 mg/kg, 1.0 mpk iv, read-out: IV PK Beta T½ (converted).

As usually defined, the AUC(0-inf) is the area under the concentration-time curve extrapolated to infinity. What is called Cmax is the peak of the concentration-time curve. In general, inhibition refers to how much of the control response was suppressed. A low value points to a weak effect.

Each structure is given as a SMILES string.

T1 sequence (Q12809 whole entry): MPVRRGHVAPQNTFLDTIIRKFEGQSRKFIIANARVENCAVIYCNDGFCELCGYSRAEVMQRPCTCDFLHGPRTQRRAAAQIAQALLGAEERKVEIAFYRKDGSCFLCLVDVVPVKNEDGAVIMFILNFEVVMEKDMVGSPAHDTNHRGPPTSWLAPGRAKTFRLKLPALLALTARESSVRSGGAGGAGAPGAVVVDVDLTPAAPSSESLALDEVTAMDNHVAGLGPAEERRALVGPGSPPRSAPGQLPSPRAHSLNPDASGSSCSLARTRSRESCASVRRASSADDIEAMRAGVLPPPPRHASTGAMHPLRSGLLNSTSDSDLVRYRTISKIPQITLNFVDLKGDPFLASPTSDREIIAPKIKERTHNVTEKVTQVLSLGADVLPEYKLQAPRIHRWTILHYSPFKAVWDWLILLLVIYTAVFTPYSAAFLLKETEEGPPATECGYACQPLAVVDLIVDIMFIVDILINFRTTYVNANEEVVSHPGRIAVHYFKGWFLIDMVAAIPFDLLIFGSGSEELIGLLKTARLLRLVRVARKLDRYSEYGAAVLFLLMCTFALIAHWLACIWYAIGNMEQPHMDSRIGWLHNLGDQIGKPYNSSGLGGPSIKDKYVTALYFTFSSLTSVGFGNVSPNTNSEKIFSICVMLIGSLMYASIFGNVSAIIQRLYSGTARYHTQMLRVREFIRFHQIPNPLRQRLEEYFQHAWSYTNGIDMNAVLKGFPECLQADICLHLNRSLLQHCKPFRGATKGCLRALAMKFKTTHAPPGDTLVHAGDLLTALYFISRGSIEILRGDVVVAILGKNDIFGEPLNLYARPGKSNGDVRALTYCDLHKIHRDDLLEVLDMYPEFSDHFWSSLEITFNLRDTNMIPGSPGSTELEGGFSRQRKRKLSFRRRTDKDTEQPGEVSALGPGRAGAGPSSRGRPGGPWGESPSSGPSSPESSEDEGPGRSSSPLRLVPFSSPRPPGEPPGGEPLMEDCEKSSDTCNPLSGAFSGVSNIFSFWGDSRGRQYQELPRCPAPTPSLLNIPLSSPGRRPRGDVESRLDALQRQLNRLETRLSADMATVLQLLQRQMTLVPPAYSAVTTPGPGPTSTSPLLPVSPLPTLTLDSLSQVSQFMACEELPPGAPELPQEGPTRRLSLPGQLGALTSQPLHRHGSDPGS

Take `C[C@H](CCCOc1ccccc1Cn1c(C#N)cnc1-c1ccc(C(F)(F)F)cc1)CC(=O)O` [Compound 2c, (3R)-6-(2-((5-cyano-2-(4-(trifluoromethyl)phenyl)-1H-imidazol-1-yl)methyl)phenoxy)-3-methylhexanoic acid]: the “hERG % Inhibition at 10 μM” value on hERG came out at 2.50%.

In the case of `C[C@H](CCCOc1ccccc1Cn1c(C(F)(F)F)cnc1-c1ccc(OC(F)(F)F)cc1)CC(=O)O` [Compound 2g, (3R)-3-methyl-6-(2-((2-(4-(trifluoromethoxy)phenyl)-5-(trifluoromethyl)-1H-imidazol-1-yl)methyl)phenoxy)hexanoic acid], the “hERG % Inhibition at 10 μM” value at hERG was 2.00%.

Turning to `C[C@H](CCCOc1ccccc1Cn1c(C(F)(F)F)cnc1-c1ccc(C(F)(F)F)cc1)CC(=O)O` [Compound 2a, (3R)-3-methyl-6-(2-((5-(trifluoromethyl)-2-(4-(trifluoromethyl)phenyl)-1H-imidazol-1-yl)methyl)phenoxy)hexanoic acid], the area under the curve AUC(0-inf) in series [1] (setting [3]) is 5040 ng·h/mL; in series [1] (setting [4]) it was 16100 ng·h/mL; in series [2] (setting [5]) it was 3310 ng·h/mL; in series [2] (setting [8]), 6960 ng·h/mL. Besides, the half-life in series [1] (1 mg/kg, 1.0 mpk iv, read-out: IV PK Beta T½ (converted)) was 7.1 h; in series [2] (setting [10]), 3.8 h. In addition, the C0 stood at 1530 ng/mL in series [1] (1 mg/kg, 1.0 mpk iv) and 740 ng/mL in series [2] (setting [6]). Also, in series [1] (1 mg/kg, 1.0 mpk iv), the clearance was determined as 3.8 mL/min/kg. In addition, the Vd in series [1] (1 mg/kg, 1.0 mpk iv) was 1.7 L/kg; in series [2] (setting [6]), 1.9 L/kg. Moreover, the bioavailability in series [1] (3 mg/kg) was 100%; in series [2] (setting [7]) it was 70%. Also, the Cmax turned out to be 1200 ng/mL in series [1] (3 mg/kg, 3.0 mpk po) and 1260 ng/mL in series [2] (setting [9]). The Tmax in series [1] (3 mg/kg, 3.0 mpk po) amounted to 2.8 h; in series [2] (setting [9]), 0.3 h. In addition, in series [2] (1.0 mpk iv), the “IV PK Beta T½” value is reported as 5.8 h. Also, the “IV PK Cl” value in series [2] (1.0 mpk iv) amounted to 5.0 mL/min/kg. Moreover, testing at 10 µM against hERG gave an inhibition of 6%.

Take `C[C@H](CCCOc1ccccc1Cn1c(C(F)(F)F)cnc1-c1ccc(Cl)cc1)CC(=O)O` [Compound 2d, (3R)-6-(2-((2-(4-chlorophenyl)-5-(trifluoromethyl)-1H-imidazol-1-yl)methyl)phenoxy)-3-methylhexanoic acid]: in series [2] (setting [5]), the AUC(0-inf) came out at 5620 ng·h/mL. Further, in series [2] (setting [11]), the half-life was 6.3 h. Besides, in series [2] (setting [6]), the C0 came to 1720 ng/mL and the Vd is 1.4 L/kg. The clearance in series [2] (male, CD-1, in vivo, 1 mg/kg, 1.0 mpk iv, read-out: IV PK Cl) came to 5.4 mL/min/kg. Moreover, the bioavailability in series [2] (setting [7]) was 61%. Further, the AUC(0-inf) in series [2] (setting [8]) came to 5620 ng·h/mL. In addition, in series [2] (setting [9]), the Cmax was 2830 ng/mL and the Tmax was determined as 0.3 h. The half-life in series [2] (setting [10]) was 10 h. On hERG, the “hERG % Inhibition at 10 μM” value was 5.00%.

On to `C[C@H](CCCOc1ccccc1Cn1c(C(F)(F)F)cnc1-c1ccc(-c2ccco2)cc1)CC(=O)O` [Compound 2i, (3R)-6-(2-((2-(4-(furan-2-yl)phenyl)-5-(trifluoromethyl)-1H-imidazol-1-yl)methyl)phenoxy)-3-methylhexanoic acid], for which the “hERG % Inhibition at 10 μM” value on hERG is 2.30%.

Regarding `C[C@H](CCCOc1ccccc1Cn1c(C(F)(F)F)cnc1-c1ccc(C#N)cc1)CC(=O)O` [Compound 2f, (R)-6-(2-((2-(4-cyanophenyl)-5-(trifluoromethyl)-1H-imidazol-1-yl)methyl)phenoxy)-3-methylhexanoic acid], the AUC(0-inf) is 4090 ng·h/mL in series [1] (setting [3]), 14900 ng·h/mL in series [1] (setting [4]), 6730 ng·h/mL in series [2] (setting [5]) and 14700 ng·h/mL in series [2] (setting [8]). For the same compound, the C0 was found to be 1820 ng/mL in series [1] (1 mg/kg, 1.0 mpk iv) and 2450 ng/mL in series [2] (setting [6]). The clearance in series [1] (1 mg/kg, 1.0 mpk iv) is 3 mL/min/kg. Also, the Vd in series [1] (1 mg/kg, 1.0 mpk iv) stood at 3.9 L/kg; in series [2] (setting [6]), 0.6 L/kg. For the same compound, the bioavailability in series [1] (3 mg/kg) is 100%. Moreover, the Cmax was found to be 4330 ng/mL in series [1] (3 mg/kg, 3.0 mpk po) and 4240 ng/mL in series [2] (setting [9]). Moreover, the Tmax in series [1] (3 mg/kg, 3.0 mpk po) was 0.3 h; in series [2] (setting [9]) it was 0.3 h. The half-life was 10.3 h in series [1] (3 mg/kg, 3.0 mpk po, read-out: Oral PK T½ (converted)); 4.1 h in series [2] (setting [11]); 4.9 h in series [2] (setting [10]). Moreover, the “IV PK Cl” value in series [2] (1.0 mpk iv) was determined as 2.5 mL/min/kg. Besides, the “Oral PK % F” value in series [2] (3.0 mpk po vs 1.0 mpk iv) turned out to be 73%. The inhibition at 10 µM against hERG amounted to 3.5%.

The values above are taken from US11358954B2, “PPAR agonists, compounds, pharmaceutical compositions, and methods of use thereof” (Mitobridge, Inc., priority 2016, dated 2022).
